Assay results taken from patent publication US20250230193A1, “CYCLIC COMPOUND HAVING SELECTIVE KRAS INHIBITORY EFFECT ON HRAS AND NRAS” (CHUGAI SEIYAKU KABUSHIKI KAISHA, priority 2022, published 2025).
Where a SMILES comes first, the peptide text is derived from it. Bridges are numbered along the chain shown (N, C = ends). [ ]: non-standard residue; d: D form. The star is where a group is joined. hPhe(3-Cl-4-CF3) = N[C@@H](CCc1ccc(C(F)(F)F)c(Cl)c1)C(=O)O; NPrPhe(4-CF3) = CCCN[C@@H](Cc1ccc(C(F)(F)F)cc1)C(=O)O; NMeAbu(4,4,4-F3) = CN[C@@H](CC(F)(F)F)C(=O)O; NMeGly(cPent) = CN[C@H](C(=O)O)C1CCCC1; Pro(4,4-F2) = O=C(O)[C@@H]1CC(F)(F)CN1; NEtPhe = CCN[C@@H](Cc1ccccc1)C(=O)O; NMeGly(cBu) = CN[C@H](C(=O)O)C1CCC1; NMeF = CN[C@@H](Cc1ccccc1)C(=O)O; NMeD = CN[C@@H](CC(=O)O)C(=O)O; NMeL = CN[C@@H](CC(C)C)C(=O)O; NMeNva = CCC[C@H](NC)C(=O)O; NMeAbu = CC[C@H](NC)C(=O)O; Morpholide = C1CN(*)CCO1; NMeA = CN[C@@H](C)C(=O)O; Ac5c = NC1(C(=O)O)CCCC1; Aze = O=C(O)[C@@H]1CCN1; Ac4c = NC1(C(=O)O)CCC1; Sar = CNCC(=O)O

Tests used:
[1] = biological target: GDP-bound HRAS wild-type protein (Homo sapiens, UniProt P01112); assay: Binding to HRAS by surface plasmon resonance (SPR), Single Cycle Kinetics; details: KD ratio HRAS/KRAS, SPR
[2] = biological target: GDP-bound NRAS wild-type protein (Homo sapiens, UniProt P01111); assay: Binding to NRAS by surface plasmon resonance (SPR), Single Cycle Kinetics; details: KD ratio NRAS/KRAS, SPR
GDP-bound NRAS wild-type protein, sequence (P01111 whole entry): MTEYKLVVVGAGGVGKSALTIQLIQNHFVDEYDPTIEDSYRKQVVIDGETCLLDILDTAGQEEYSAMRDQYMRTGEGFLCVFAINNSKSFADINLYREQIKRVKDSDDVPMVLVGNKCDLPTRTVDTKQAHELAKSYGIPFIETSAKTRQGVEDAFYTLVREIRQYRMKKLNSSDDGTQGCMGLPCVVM

GDP-bound HRAS wild-type protein, sequence (P01112 whole entry): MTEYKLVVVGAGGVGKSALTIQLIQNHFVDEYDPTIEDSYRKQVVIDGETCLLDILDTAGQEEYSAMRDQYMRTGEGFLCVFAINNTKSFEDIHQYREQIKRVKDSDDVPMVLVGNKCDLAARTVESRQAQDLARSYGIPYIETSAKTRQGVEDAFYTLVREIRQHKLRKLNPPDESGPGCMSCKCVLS

| SMILES | HRAS/KRAS (ratio of KD for GDP-bound HRAS wild-type to KD for KRAS) [1] | NRAS/KRAS (ratio of KD for GDP-bound NRAS wild-type to KD for KRAS) [2] |
| --- | --- | --- |
| CCCN1C(=O)CN(C)C(=O)CN(C)C(=O)[C@H]([C@@H](C)CC)NC(=O)[C@H](CC(F)(F)F)N(C)C(=O)C[C@@H](C(=O)N2CCOCC2)N(C)C(=O)[C@H](C2CCCC2)N(C)C(=O)C2(CCCC2)NC(=O)[C@@H]2CC(F)(F)CN2C(=O)[C@H](CCc2ccc(C(F)(F)F)c(Cl)c2)NC(=O)CN(C)C(=O)[C@@H]1Cc1ccc(C(F)(F)F)cc1 [PP0199] ([NMeAbu(4,4,4-F3)]I[Sar][Sar][NPrPhe(4-CF3)][Sar][hPhe(3-Cl-4-CF3)][Pro(4,4-F2)][Ac5c][NMeGly(cPent)][NMeD]-Morpholide; lactam N-11) | C (A compound having a KD ratio of 0.1 or more and less than 3 is denoted as C) | B (a compound having 3 or more and less than 10 is denoted as B) |
| CCCN1C(=O)CN(C)C(=O)CN(C)C(=O)[C@H]([C@@H](C)CC)NC(=O)[C@H](C2CCC2)N(C)C(=O)C[C@@H](C(=O)N2CCOCC2)N(C)C(=O)[C@H](C2CCCC2)N(C)C(=O)C2(CCCC2)NC(=O)[C@@H]2CC(F)(F)CN2C(=O)[C@H](CCc2ccc(C(F)(F)F)c(Cl)c2)NC(=O)CN(C)C(=O)[C@@H]1Cc1ccc(C(F)(F)F)cc1 [PP0200] ([NMeGly(cBu)]I[Sar][Sar][NPrPhe(4-CF3)][Sar][hPhe(3-Cl-4-CF3)][Pro(4,4-F2)][Ac5c][NMeGly(cPent)][NMeD]-Morpholide; lactam N-11) | C (A compound having a KD ratio of 0.1 or more and less than 3 is denoted as C) | C (A compound having a KD ratio of 0.1 or more and less than 3 is denoted as C) |
| CCC[C@H]1C(=O)N[C@@H]([C@@H](C)CC)C(=O)N(C)CC(=O)N(C)CC(=O)N(CCC)[C@@H](Cc2ccc(C(F)(F)F)cc2)C(=O)N(C)CC(=O)N[C@@H](CCc2ccc(C(F)(F)F)c(Cl)c2)C(=O)N2CC(F)(F)C[C@H]2C(=O)NC2(CCCC2)C(=O)N(C)[C@@H](C2CCCC2)C(=O)N(C)[C@H](C(=O)N2CCOCC2)CC(=O)N1C [PP0201] ([NMeNva]I[Sar][Sar][NPrPhe(4-CF3)][Sar][hPhe(3-Cl-4-CF3)][Pro(4,4-F2)][Ac5c][NMeGly(cPent)][NMeD]-Morpholide; lactam N-11) | C (A compound having a KD ratio of 0.1 or more and less than 3 is denoted as C) | B (a compound having 3 or more and less than 10 is denoted as B) |
| CCCN1C(=O)CN(C)C(=O)CN(C)C(=O)[C@H]([C@@H](C)CC)NC(=O)[C@H](CC)N(C)C(=O)C[C@@H](C(=O)N2CCOCC2)N(C)C(=O)[C@H](C2CCCC2)N(C)C(=O)C2(CCCC2)NC(=O)[C@@H]2CC(F)(F)CN2C(=O)[C@H](CCc2ccc(C(F)(F)F)c(Cl)c2)NC(=O)CN(C)C(=O)[C@@H]1Cc1ccc(C(F)(F)F)cc1 [PP0202] ([NMeAbu]I[Sar][Sar][NPrPhe(4-CF3)][Sar][hPhe(3-Cl-4-CF3)][Pro(4,4-F2)][Ac5c][NMeGly(cPent)][NMeD]-Morpholide; lactam N-11) | C (A compound having a KD ratio of 0.1 or more and less than 3 is denoted as C) | B (a compound having 3 or more and less than 10 is denoted as B) |
| CCCN1C(=O)[C@@H]2CCN2C(=O)[C@H](C)N(C)C(=O)[C@H]([C@@H](C)CC)NC(=O)[C@H](CC(F)(F)F)N(C)C(=O)C[C@@H](C(=O)N2CCOCC2)N(C)C(=O)[C@H](C2CCCC2)N(C)C(=O)C2(CCCC2)NC(=O)[C@@H]2CC(F)(F)CN2C(=O)[C@H](CCc2ccc(C(F)(F)F)c(Cl)c2)NC(=O)CN(C)C(=O)[C@@H]1Cc1ccc(C(F)(F)F)cc1 [PP0203] ([NMeAbu(4,4,4-F3)]I[NMeA][Aze][NPrPhe(4-CF3)][Sar][hPhe(3-Cl-4-CF3)][Pro(4,4-F2)][Ac5c][NMeGly(cPent)][NMeD]-Morpholide; lactam N-11) | C (A compound having a KD ratio of 0.1 or more and less than 3 is denoted as C) | C (A compound having a KD ratio of 0.1 or more and less than 3 is denoted as C) |
| CCCN1C(=O)[C@@H]2CCN2C(=O)[C@H](C)N(C)C(=O)[C@H]([C@@H](C)CC)NC(=O)[C@H](C2CCC2)N(C)C(=O)C[C@@H](C(=O)N2CCOCC2)N(C)C(=O)[C@H](C2CCCC2)N(C)C(=O)C2(CCCC2)NC(=O)[C@@H]2CC(F)(F)CN2C(=O)[C@H](CCc2ccc(C(F)(F)F)c(Cl)c2)NC(=O)CN(C)C(=O)[C@@H]1Cc1ccc(C(F)(F)F)cc1 [PP0204] ([NMeGly(cBu)]I[NMeA][Aze][NPrPhe(4-CF3)][Sar][hPhe(3-Cl-4-CF3)][Pro(4,4-F2)][Ac5c][NMeGly(cPent)][NMeD]-Morpholide; lactam N-11) | C (A compound having a KD ratio of 0.1 or more and less than 3 is denoted as C) | C (A compound having a KD ratio of 0.1 or more and less than 3 is denoted as C) |
| CCC[C@H]1C(=O)N[C@@H]([C@@H](C)CC)C(=O)N(C)[C@@H](C)C(=O)N2CC[C@H]2C(=O)N(CCC)[C@@H](Cc2ccc(C(F)(F)F)cc2)C(=O)N(C)CC(=O)N[C@@H](CCc2ccc(C(F)(F)F)c(Cl)c2)C(=O)N2CC(F)(F)C[C@H]2C(=O)NC2(CCCC2)C(=O)N(C)[C@@H](C2CCCC2)C(=O)N(C)[C@H](C(=O)N2CCOCC2)CC(=O)N1C [PP0205] ([NMeNva]I[NMeA][Aze][NPrPhe(4-CF3)][Sar][hPhe(3-Cl-4-CF3)][Pro(4,4-F2)][Ac5c][NMeGly(cPent)][NMeD]-Morpholide; lactam N-11) | C (A compound having a KD ratio of 0.1 or more and less than 3 is denoted as C) | C (A compound having a KD ratio of 0.1 or more and less than 3 is denoted as C) |
| CCCN1C(=O)[C@@H]2CCN2C(=O)[C@H](C)N(C)C(=O)[C@H]([C@@H](C)CC)NC(=O)[C@H](CC)N(C)C(=O)C[C@@H](C(=O)N2CCOCC2)N(C)C(=O)[C@H](C2CCCC2)N(C)C(=O)C2(CCCC2)NC(=O)[C@@H]2CC(F)(F)CN2C(=O)[C@H](CCc2ccc(C(F)(F)F)c(Cl)c2)NC(=O)CN(C)C(=O)[C@@H]1Cc1ccc(C(F)(F)F)cc1 [PP0206] ([NMeAbu]I[NMeA][Aze][NPrPhe(4-CF3)][Sar][hPhe(3-Cl-4-CF3)][Pro(4,4-F2)][Ac5c][NMeGly(cPent)][NMeD]-Morpholide; lactam N-11) | B (a compound having 3 or more and less than 10 is denoted as B) | C (A compound having a KD ratio of 0.1 or more and less than 3 is denoted as C) |
| CCCN1C(=O)CN(C)C(=O)CN(C)C(=O)[C@H]([C@@H](C)CC)NC(=O)[C@H](CC(C)C)N(C)C(=O)C[C@@H](C(=O)N2CCOCC2)N(C)C(=O)[C@H](C2CCCC2)N(C)C(=O)C2(CCC2)NC(=O)[C@@H]2CC(F)(F)CN2C(=O)[C@H](CCc2ccc(C(F)(F)F)c(Cl)c2)NC(=O)CN(C)C(=O)[C@@H]1Cc1ccc(C(F)(F)F)cc1 [PP0207] ([NMeL]I[Sar][Sar][NPrPhe(4-CF3)][Sar][hPhe(3-Cl-4-CF3)][Pro(4,4-F2)][Ac4c][NMeGly(cPent)][NMeD]-Morpholide; lactam N-11) | C (A compound having a KD ratio of 0.1 or more and less than 3 is denoted as C) | B (a compound having 3 or more and less than 10 is denoted as B) |
| CCCN1C(=O)[C@@H]2CCN2C(=O)[C@H](C)N(C)C(=O)[C@H]([C@@H](C)CC)NC(=O)[C@H](CC(C)C)N(C)C(=O)C[C@@H](C(=O)N2CCOCC2)N(C)C(=O)[C@H](C2CCCC2)N(C)C(=O)C2(CCC2)NC(=O)[C@@H]2CC(F)(F)CN2C(=O)[C@H](CCc2ccc(C(F)(F)F)c(Cl)c2)NC(=O)CN(C)C(=O)[C@@H]1Cc1ccc(C(F)(F)F)cc1 [PP0208] ([NMeL]I[NMeA][Aze][NPrPhe(4-CF3)][Sar][hPhe(3-Cl-4-CF3)][Pro(4,4-F2)][Ac4c][NMeGly(cPent)][NMeD]-Morpholide; lactam N-11) | C (A compound having a KD ratio of 0.1 or more and less than 3 is denoted as C) | C (A compound having a KD ratio of 0.1 or more and less than 3 is denoted as C) |
| CCCN1C(=O)[C@@H]2CCN2C(=O)[C@H](Cc2ccccc2)N(C)C(=O)[C@H]([C@@H](C)CC)NC(=O)[C@H](CC(C)C)N(C)C(=O)C[C@@H](C(=O)N2CCOCC2)N(C)C(=O)[C@H](C2CCCC2)N(C)C(=O)C2(CCCC2)NC(=O)[C@@H]2CCCN2C(=O)[C@H](CCc2ccc(C(F)(F)F)c(Cl)c2)NC(=O)CN(C)C(=O)[C@@H]1Cc1ccc(C(F)(F)F)cc1 [PP0209] ([NMeL]I[NMeF][Aze][NPrPhe(4-CF3)][Sar][hPhe(3-Cl-4-CF3)]P[Ac5c][NMeGly(cPent)][NMeD]-Morpholide; lactam N-11) | C (A compound having a KD ratio of 0.1 or more and less than 3 is denoted as C) | C (A compound having a KD ratio of 0.1 or more and less than 3 is denoted as C) |
| CC[C@H](C)[C@@H]1NC(=O)[C@H](CC(C)C)N(C)C(=O)C[C@@H](C(=O)N2CCOCC2)N(C)C(=O)[C@H](C2CCCC2)N(C)C(=O)C2(CCCC2)NC(=O)[C@@H]2CCCN2C(=O)[C@H](CCc2ccc(C(F)(F)F)c(Cl)c2)NC(=O)CN(C)C(=O)[C@H](Cc2ccccc2)N(CC)C(=O)CN(C)C(=O)CN(C)C1=O [PP0210] ([NMeL]I[Sar][Sar][NEtPhe][Sar][hPhe(3-Cl-4-CF3)]P[Ac5c][NMeGly(cPent)][NMeD]-Morpholide; lactam N-11) | C (A compound having a KD ratio of 0.1 or more and less than 3 is denoted as C) | C (A compound having a KD ratio of 0.1 or more and less than 3 is denoted as C) |
